# From article PMC5632672, “Generation of Persister Cells of Pseudomonas aeruginosa and Staphylococcus aureus by Chemical Treatment and Evaluation of Their Susceptibility to Membrane-Targeting Agents” (Frontiers in Microbiology, 2017)
# Read-outs that look alike come from different tables or passages of the source. Positions of bridges follow the written chain, without caps; N, C: chain ends. Non-standard residues stand in square brackets, D forms with d. Residues, ends and D or L forms follow the SMILES beside them. *: point of attachment. X1 = CC[C@H](C)CCCCC(=O)*; Dab = NCC[C@H](N)C(=O)O
# Legend:
# [1] = test system: Pseudomonas aeruginosa ATCC 27853; test: Isothermal microcalorimetry, bacterial heat production; assay type: cell-based; conditions: P. aeruginosa stationary-phase culture incubated with CCCP 200 μg/mL, recorded for 24 h, Figure 3
# [2] = test system: Staphylococcus aureus ATCC 33591; test: as above; conditions: S. aureus stationary-phase culture incubated with CCCP 400 μg/mL, recorded for 24 h, Figure 3
# Experimental: The metabolic profile of CCCP-induced persisters of P. aeruginosa and S. aureus was evaluated by real-time monitoring of bacterial heat production through isothermal microcalorimetry. […] Ampoules were inserted into the calorimeter, placed in the thermal equilibration position for 15 min and then lowered into the measuring position. After 45 min of signal stabilization, measurements of the heat flow were initiated and recorded for 24 h. Data analysis was performed with the manufacturer software (TAM Assistant) and GraphPad Prism (GraphPad Software, La Jolla, CA, United States), and results were plotted as heat flow (in microwatts) or total heat (in joules) versus time.
# [3] = test system: Staphylococcus aureus ATCC 33591; assay type: cell-based; conditions: S. aureus, CCCP 400 μg/mL 3 h, washed, fresh LB
# [4] = test system: Pseudomonas aeruginosa ATCC 27853; test: Induction of persistence with CCCP, survival to antibiotic treatment; conditions: P. aeruginosa
# [5] = test system: Pseudomonas aeruginosa ATCC 27853; test: Revival assay of CCCP-induced persisters; assay type: cell-based; conditions: P. aeruginosa, CCCP 200 μg/mL 3 h, washed, fresh LB
# [6] = test system: Staphylococcus aureus ATCC 33591; test: Induction of persistence with CCCP, survival to antibiotic treatment; conditions: S. aureus
# [7] = test system: Pseudomonas aeruginosa ATCC 27853; test: Effect of CCCP on cell viability, CFU counting; conditions: P. aeruginosa stationary-phase cultures, CCCP at concentrations up to 200 μg/mL, 3 h, 37°C, Figure 1
# Experimental: (§2) Bacteria were grown in LB medium for approximately 18 h at 37°C to obtain stationary-phase cells, as assessed by monitoring bacterial growth by optical density. A volume of 1 mL of the overnight cultures was incubated with 10 μL of CCCP at different concentrations (from 25 to 400 μg/mL) for 3 h at 37°C with shaking. Bacterial cultures exposed to DMSO were used as cell viability control. Following the incubation, bacteria were washed twice in sodium-phosphate buffer (10 mM SPB, pH 7.4) by centrifugation (1700 × g for 10 min), subsequently diluted 10-fold in LB and plated on TSA to determine the number of CFU.
# [8] = test system: Staphylococcus aureus ATCC 33591; test: Flow cytometry, oxidoreductase activity with RedoxSensor Green; assay type: cell-based; conditions: S. aureus, 3-h exposure to CCCP 400 μg/mL, Figure 4B
# Experimental: (§1) The metabolic activity of CCCP-induced PCs of P. aeruginosa and S. aureus was also evaluated by determining the oxidoreductase activity through flow cytometry. […] Then, bacterial suspensions were stained with the RedoxSensor^TM Green reagent (RSG) (BacLight^TM RedoxSensor^TM Green Vitality Kit, Thermo Fisher Scientific, Waltham, MA, United States) according to the manufacturer’s instructions. Briefly, 1 mL of the bacterial suspension was incubated with 1 μL (P. aeruginosa) or 0.1 μL (S. aureus) of 1 mM RSG for 10 min at 37°C in the dark. Stained samples were analyzed with a BD Accuri C6 flow cytometer (BD Biosciences, Mountain View, CA, United States) equipped with a 488 nm laser and a 533/30 nm optical filter. Data were collected and analyzed with BD Accuri C6 software (BD Biosciences), and results were plotted as cell counts versus fluorescence intensity.
# [9] = test system: Pseudomonas aeruginosa ATCC 27853; test: as above; assay type: cell-based; conditions: P. aeruginosa, 3-h exposure to CCCP 200 μg/mL, Figure 4A
# Experimental: as §1
# [10] = test system: Staphylococcus aureus ATCC 33591; test: Effect of CCCP on cell viability, CFU counting; conditions: S. aureus stationary-phase cultures, CCCP at concentrations up to 400 μg/mL, 3 h, 37°C, Figure 1
# Experimental: as §2
# [11] = test system: Pseudomonas aeruginosa ATCC 27853; test: MIC and MBC by standard microdilution after revival of CCCP-induced persisters
# [12] = test system: Pseudomonas aeruginosa ATCC 27853
# [13] = test system: Staphylococcus aureus ATCC 33591
# [14] = test system: Staphylococcus aureus ATCC 33591; test: MIC and MBC by standard microdilution after revival of CCCP-induced persisters
# [15] = CCCP 200 μg/mL for 3 h, then meropenem 10 μg/mL 3 h, Figure 2C
# [16] = CCCP 400 μg/mL for 3 h, then gentamicin 10 μg/mL 3 h, Figure 2F
# [17] = ATCC27853, read-out: MBC, CCCP-pretreated
# [18] = ATCC27853, read-out: MBC, CCCP-untreated
# [19] = ATCC33591, 24 h, read-out: MIC, CCCP-untreated
# [20] = ATCC33591, read-out: MBC, CCCP-pretreated
# [21] = ATCC33591, read-out: MBC, CCCP-untreated
# [22] = ATCC33591, read-out: MIC, CCCP-pretreated
molecule,measurement,setting,value
"N#CC(C#N)=NNc1cccc(Cl)c1 [CCCP, Carbonyl cyanide m-chlorophenylhydrazone]",basal heat production,[1],< 5 μWh
same,basal heat production,[2],< 5 μWh
same,"lag phase before resuming replication at a normal rate, optical density","[3]; OD600, Figure 5D",approximately 1 h
same,delay in heat production after CCCP removal (time of maximum heat production),"[3]; microcalorimetry, Figure 5C",1 h
same,fold increase in the number of persister-like cells vs untreated control,"[4]; CCCP 200 μg/mL for 3 h, then ciprofloxacin 5 μg/mL 3 h, Figure 2A",5000 fold
same,fold increase in the percentage of bacteria tolerant to meropenem,[4]; [15],200 fold
same,percentage of starting bacterial population tolerant to meropenem after CCCP pretreatment,[4]; [15],35%
same,"lag phase before resuming replication at a normal rate, optical density","[5]; OD600, Figure 5B",approximately 1 h
same,time lag in heat production after CCCP removal (time of maximum heat production),"[5]; microcalorimetry, Figure 5A",1.5 h
same,fold increase in survival to gentamicin,[6]; [16],approximately 500 times
same,percentage of cells becoming persisters (surviving gentamicin) after CCCP pretreatment,[6]; [16],20%
same,percentage of initial population surviving levofloxacin exposure after CCCP pretreatment,"[6]; CCCP 400 μg/mL for 3 h, then levofloxacin 2.5 μg/mL 3 h, Figure 2D",approximately 60%
same,effect on cell viability,[7],did not exert a significant killing effect
same,reduction in RSG fluorescence vs untreated control,[8],approximately three
same,reduction in RSG fluorescence vs untreated control,[9],approximately three
same,effect on cell viability,[10],only a minor effect on cell viability
O=C(O)c1cn(C2CC2)c2cc(N3CCNCC3)c(F)cc2c1=O [Ciprofloxacin],"percentage of stationary-phase culture surviving antibiotic exposure, no CCCP pretreatment","[4]; ciprofloxacin 5 μg/mL, 3 h, SPB/LB, Figure 2A",less than 0.01%
same,MIC,"[11]; ATCC27853, 24 h, read-out: MIC, CCCP-untreated",0.5 mg/L
same,MBC,[11]; [17],1 mg/L
same,MBC,[11]; [18],1 mg/L
same,MIC,"[11]; ATCC27853, read-out: MIC, CCCP-pretreated",0.5 mg/L
"CC[C@H](C)CCCCC(=O)N[C@@H](CCN)C(=O)N[C@H](C(=O)N[C@@H](CCN)C(=O)N[C@H]1CCNC(=O)[C@H]([C@@H](C)O)NC(=O)[C@H](CCN)NC(=O)[C@H](CCN)NC(=O)[C@H](CC(C)C)NC(=O)[C@@H](CC(C)C)NC(=O)[C@H](CCN)NC1=O)[C@@H](C)O [Colistin, colistin] (X1-[Dab]T[Dab][Dab][Dab][dL]L[Dab][Dab]T; lactam 4-C (inferred); N-terminus assumed)",concentration eradicating persister-enriched cultures to the limit of detection (complete killing),[12],3.5 µM
same,"MBC, P. aeruginosa CCCP-pretreated","[12]; ATCC 27853, 3 h",3.5 µM
same,"MBC, P. aeruginosa CCCP-untreated","[12]; ATCC 27853, 3 h",1.75 µM
same,fold increase in MBC against CCCP-pretreated vs CCCP-untreated bacteria,[12]; P. aeruginosa,2 fold
CCCCCCCCCC(=O)N[C@@H](Cc1c[nH]c2ccccc12)C(=O)N[C@H](CC(N)=O)C(=O)N[C@@H](CC(=O)O)C(=O)N[C@@H]1C(=O)NCC(=O)N[C@@H](CCCN)C(=O)N[C@@H](CC(=O)O)C(=O)N[C@H](C)C(=O)N[C@@H](CC(=O)O)C(=O)NCC(=O)N[C@H](CO)C(=O)N[C@@H]([C@H](C)CC(=O)O)C(=O)N[C@@H](CC(=O)c2ccccc2N)C(=O)O[C@@H]1C [Daptomycin],"MBC, S. aureus CCCP-pretreated","[13]; ATCC 33591, 3 h",112 µM
same,"MBC, S. aureus CCCP-untreated","[13]; ATCC 33591, 3 h",7 µM
same,fold higher concentration required to kill CCCP-induced persisters than untreated bacteria (MBC),[13]; S. aureus,16 fold
same,bactericidal concentration against persisters relative to those of the tested AMPs,"[13]; S. aureus CCCP-pretreated, Figure 6B",32 to 64 fold
CNC(C)C1CCC(N)C(OC2C(N)CC(N)C(OC3OCC(C)(O)C(NC)C3O)C2O)O1 (centres unmarked) [Gentamicin],MIC,[14]; [19],20 mg/L
same,MBC,[14]; [20],40 mg/L
same,MBC,[14]; [21],40 mg/L
same,MIC,[14]; [22],20 mg/L
"C[C@H]1COc2c(N3CCN(C)CC3)c(F)cc3c(=O)c(C(=O)O)cn1c23 [Levofloxacin, levofloxacin]",MIC,[14]; [19],0.5 mg/L
same,MBC,[14]; [20],0.5 mg/L
same,MBC,[14]; [21],0.5 mg/L
same,MIC,[14]; [22],0.5 mg/L
same,"percentage of initial inoculum tolerating antibiotic treatment, no CCCP pretreatment","[6]; levofloxacin 2.5 μg/mL, 3 h, SPB/LB, Figure 2D",approximately 0.5%
"C[C@@H](O)[C@H]1C(=O)N2C(C(=O)O)=C(S[C@@H]3CN[C@H](C(=O)N(C)C)C3)[C@H](C)[C@H]12 [Meropenem, meropenem]",MBC,[11]; [17],10 mg/L
same,MBC,[11]; [18],10 mg/L
[WKKIRVRLSA]2-K-8Aoc-NH2 [Den-SB056],"MBC, S. aureus CCCP-pretreated","[13]; persister-enriched cultures (CCCP 400 μg/mL, 3 h), SPB/LB (daptomycin: deionized water with 1% LB and 75 μg/mL CaCl2), 1 × 10^6 CFU/mL, 3 h, 37°C, CFU counting",1.75 µM
same,"MBC, S. aureus CCCP-untreated","[13]; stationary-phase cultures, CCCP-untreated, SPB/LB (daptomycin: deionized water with 1% LB and 75 μg/mL CaCl2), 1 × 10^6 CFU/mL, 3 h, 37°C, CFU counting",1.75 µM
same,"MBC, P. aeruginosa CCCP-pretreated","[12]; persister-enriched cultures (CCCP 200 μg/mL, 3 h), SPB/LB, 1 × 10^6 CFU/mL, 3 h, 37°C, CFU counting",1.75 µM
same,"MBC, P. aeruginosa CCCP-untreated","[12]; stationary-phase cultures, CCCP-untreated, SPB/LB, 1 × 10^6 CFU/mL, 3 h, 37°C, CFU counting",0.87 µM
